US8987287B2, “Spirocyclic morphinans and their use” (Purdue Pharma L.P., priority 2012, dated 2015)

Legend:
κ opioid receptor = κ opioid receptor (Homo sapiens (Human), UniProt P41145); assay: κ-opioid receptor [35S]GTPγS functional assay, U-2 OS cells; type: biochemical; details: for Emax: relative to U69,593, U-2 OS cells
Description: κ-Opioid Receptor Functional Assay Procedures: Functional [^35S]GTPγS binding assays were conducted as follows. κ opioid receptor membrane solution was prepared by sequentially adding final concentrations of 0.026 μg/μl κ membrane protein (in-house), 10 μg/mL saponin, 3 μM GDP and 0.20 nM [^35S]GTPγS to binding buffer (100 mM NaCl, 10 mM MgCl2, 20 mM HEPES, pH 7.4) on ice. The prepared membrane solution (190 μl/well) was transferred to 96-shallow well polypropylene plates containing 10 μl of 20× concentrated stock solutions of agonist prepared in DMSO. Plates were incubated for 30 min at a temperature of about 25° C. with shaking. Reactions were terminated by rapid filtration onto 96-well Unifilter GF/B filter plates (Perkin Elmer, Shelton, Conn.) using a 96-well tissue harvester (Packard) and followed by three filtration washes with 200 μl ice-cold binding buffer (10 mM NaH2PO4, 10 mM Na2HPO4, pH 7.4). Filter plates were subsequently dried at 50° C. for 2-3 hours. Fifty μl/well scintillation cocktail (Perkin Elmer, Shelton, Conn.) was added and plates were counted in a Packard Top-Count for 1 min/well.
κ-Opioid Receptor Functional Data: κ GTP EC50 is the concentration of a compound providing 50% of the maximal response for the compound at a κ receptor.
κ GTP Emax (%) is the maximal effect elicited by a compound relative to the effect elicited by U69,593.
(§1) The following TABLE 3 provides results on the activity response of certain Compounds of the Invention at the μ- and κ-opioid receptors determined as described above using U-2 OS cells.

μ-opioid receptor = μ-opioid receptor (Homo sapiens (Human), UniProt P35372); assay: μ-opioid receptor [35S]GTPγS functional assay, U-2 OS cells; type: biochemical; details: for Emax: relative to DAMGO, U-2 OS cells
Description: μ-Opioid Receptor Functional Assay Procedures: [^35S]GTPγS functional assays were conducted using freshly thawed μ-receptor membranes prepared in-house from a cell line expressing recombinant μ opioid receptor in a HEK-293, CHO or U-2 OS cell background, or purchased from a commercial source (Perkin Elmer, Shelton, Conn.; or DiscovRx, Fremont, Calif.). Assay reactions were prepared by sequentially adding the following reagents to binding buffer (100 mM NaCl, 10 mM MgCl2, 20 mM HEPES, pH 7.4) on ice (final concentrations indicated): membrane protein (0.026 mg/mL), saponin ([…]), GDP ([…]) and [^35S]GTPγS (0.20 nM; Perkin Elmer, Shelton, Conn.). The prepared membrane solution (190 μl/well) was transferred to 96-shallow well polypropylene plates containing 10 μl of 20× concentrated stock solutions of the agonist [D-Ala^2, N-methyl-Phe^4 Gly-ol^5]-enkephalin (DAMGO) prepared in dimethyl sulfoxide (DMSO). Plates were incubated for 30 min at about 25° C. with shaking. Reactions were terminated by rapid filtration onto 96-well Unifilter GF/B filter plates (Perkin Elmer, Shelton, Conn.) using a 96-well tissue harvester (Perkin Elmer, Shelton, Conn.) followed by three filtration washes with 200 μl of ice-cold wash buffer (10 mM NaH2PO4, 10 mM Na2HPO4, pH 7.4). Filter plates were subsequently dried at 50° C. for 2-3 hours. BetaScint scintillation cocktail (Perkin Elmer, Shelton, Conn.) was added (50 μl/well) and plates were counted using a Packard Top-Count for 1 min/well. Data were analyzed using the sigmoidal dose-response curve fitting functions in GraphPad PRISM v. 3.0, or an in-house function for non-linear, sigmoidal dose-response curve-fitting.
μ-Opioid Receptor Functional Data: μ GTP EC50 is the concentration of a compound providing 50% of the maximal response for the compound at a μ-opioid receptor.
μ GTP Emax (%) is the maximal effect elicited by a compound relative to the effect elicited by DAMGO, a standard μ agonist. Generally, the μ GTP Emax (%) value measures the efficacy of a compound to treat or prevent pain or other Conditions.
as §1

COc1ccc2c(c1)[C@]13CCN(CC(F)(F)F)[C@H](C2)[C@]1(O)CC[C@@]1(C3)NC(=O)NC1=O [Compound 13, (4bR,4′S,8aS,9R)-8a-hydroxy-3-methoxy-11-(2,2,2-trifluoroethyl)-5,7,8,8a,9,10-hexahydrospiro[9,4b-(epiminoethano)phenanthrene-6,4′-imidazolidine]-2′,5′-dione]
EC50 (κ opioid receptor): > 20 µM | Emax (κ opioid receptor): 65 ± 8.74% | EC50 (μ-opioid receptor): > 20 µM | Emax (μ-opioid receptor): 10%

COc1ccc2c(c1)[C@]13CCN(CCF)[C@H](C2)[C@]1(O)CC[C@@]1(C3)NC(=O)NC1=O [Compound 14, (4bR,4′S,8aS,9R)-1-(2-fluoroethyl)-8a-hydroxy-3-methoxy-5,7,8,8a,9,10-hexahydrospiro[9,4b-(epiminoethano)phenanthrene-6,4′-imidazolidine]-2′,5′-dione]
EC50 (κ opioid receptor): > 20 µM | Emax (κ opioid receptor): 110 ± 6.74% | EC50 (μ-opioid receptor): > 20 µM | Emax (μ-opioid receptor): 14.5%

CCN1CC[C@]23C[C@]4(CC[C@@]2(O)[C@H]1Cc1ccc(OC)cc13)NC(=O)NC4=O [Compound 15, (4bR,4′S,8aS,9R)-11-ethyl-8a-hydroxy-3-methoxy-5,7,8,8a,9,10-hexahydrospiro[9,4b-(epiminoethano)phenanthrene-6,4′-imidazolidine]-2′,5′-dione]
EC50 (κ opioid receptor): > 20 µM | Emax (κ opioid receptor): 65.3 ± 7.86% | EC50 (μ-opioid receptor): > 20 µM | Emax (μ-opioid receptor): 8%

CCN1C(=O)N[C@]2(CC[C@@]3(O)[C@H]4Cc5ccc(OC)cc5[C@@]3(CCN4CC)C2)C1=O [Compound 16, (4bR,4′S,8aS,9R)-1′,11-diethyl-8a-hydroxy-3-methoxy-5,7,8,8a,9,10-hexahydrospiro[9,4b-(epiminoethano)phenanthrene-6,4′-imidazolidine]-2′,5′-dione]
EC50 (κ opioid receptor): > 20 µM | Emax (κ opioid receptor): 50 ± 1% | EC50 (μ-opioid receptor): > 20 µM | Emax (μ-opioid receptor): 8.5%

COc1ccc2c(c1)[C@]13CCN(CCC(F)(F)F)[C@H](C2)[C@]1(O)CC[C@@]1(C3)NC(=O)NC1=O [Compound 17, (4bR,4′S,8aS,9R)-8a-hydroxy-3-methoxy-11-(3,3,3-trifluoropropyl)-5,7,8,8a,9,10-hexahydrospiro[9,4b-(epiminoethano)phenanthrene-6,4′-imidazolidine]-2′,5′-dione]
EC50 (κ opioid receptor): > 20 µM | Emax (κ opioid receptor): 83.7 ± 6.69% | EC50 (μ-opioid receptor): > 20 µM | Emax (μ-opioid receptor): 18.5 ± 6.14%

COc1ccc2c(c1)[C@]13CCN(CCCC(F)(F)F)[C@H](C2)[C@]1(O)CC[C@@]1(C3)NC(=O)NC1=O [Compound 18, (4bR,4′S,8aS,9R)-8a-hydroxy-3-methoxy-11-(4,4,4-trifluorobutyl)-5,7,8,8a,9,10-hexahydrospiro[9,4b-(epiminoethano)phenanthrene-6,4′-imidazolidine]-2′,5′-dione]
EC50 (κ opioid receptor): > 20 µM | Emax (κ opioid receptor): 86 ± 7.21% | EC50 (μ-opioid receptor): > 20 µM | Emax (μ-opioid receptor): 20.7 ± 4.81%

COc1ccc2c(c1)[C@]13CCN(CC(F)F)[C@H](C2)[C@]1(O)CC[C@@]1(C3)NC(=O)NC1=O [Compound 19, (4bR,4′S,8aS,9R)-11-(2,2-difluoroethyl)-8a-hydroxy-3-methoxy-5,7,8,8a,9,10-hexahydrospiro[9,4b-(epiminoethano)phenanthrene-6,4′-imidazolidine]-2′,5′-dione]
EC50 (κ opioid receptor): > 20 µM | Emax (κ opioid receptor): 52% | EC50 (μ-opioid receptor): > 20 µM | Emax (μ-opioid receptor): 1%

COc1ccc2c(c1)[C@]13CCN(CCc4ccccc4)[C@H](C2)[C@]1(O)CC[C@@]1(C3)NC(=O)NC1=O [Compound 20, (4bR,4′S,8aS,9R)-8a-hydroxy-3-methoxy-11-phenethyl-5,7,8,8a,9,10-hexahydrospiro[9,4b-(epiminoethano)phenanthrene-6,4′-imidazolidine]-2′,5′-dione]
EC50 (κ opioid receptor): > 20 µM | Emax (κ opioid receptor): 75.7 ± 11.5% | EC50 (μ-opioid receptor): 0.664 ± 0.113 µM | Emax (μ-opioid receptor): 105 ± 1.23%

COc1ccc2c(c1)[C@]13CCN(CC=C(C)C)[C@H](C2)[C@]1(O)CC[C@@]1(C3)NC(=O)NC1=O [Compound 21, (4bR,4′S,8aS,9R)-8a-hydroxy-3-methoxy-11-(3-methylbut-2-en-1-yl)-5,7,8,8a,9,10-hexahydrospiro[9,4b-(epiminoethano)phenanthrene-6,4′-imidazolidine]-2′,5′-dione]
EC50 (κ opioid receptor): > 20 µM | Emax (κ opioid receptor): -1% | EC50 (μ-opioid receptor): > 20 µM | Emax (μ-opioid receptor): 5.5%

COc1ccc2c(c1)[C@]13CCN(CCC(C)C)[C@H](C2)[C@]1(O)CC[C@@]1(C3)NC(=O)NC1=O [Compound 22, (4bR,4′S,8aS,9R)-8a-hydroxy-11-isopentyl-3-methoxy-5,7,8,8a,9,10-hexahydrospiro[9,4b-(epiminoethano)phenanthrene-6,4′-imidazolidine]-2′,5′-dione]
EC50 (κ opioid receptor): > 20 µM | Emax (κ opioid receptor): 91.3 ± 6.57% | EC50 (μ-opioid receptor): 3.96 ± 1.41 µM | Emax (μ-opioid receptor): 46 ± 6%

COc1ccc2c(c1)[C@]13CCN(CC4CCCCC4)[C@H](C2)[C@]1(O)CC[C@@]1(C3)NC(=O)NC1=O [Compound 23, (4bR,4′S,8aS,9R)-11-(cyclohexylmethyl)-8a-hydroxy-3-methoxy-5,7,8,8a,9,10-hexahydrospiro[9,4b-(epiminoethano)phenanthrene-6,4′-imidazolidine]-2′,5′-dione]
EC50 (κ opioid receptor): > 20 µM | Emax (κ opioid receptor): 98 ± 8.89% | EC50 (μ-opioid receptor): > 20 µM | Emax (μ-opioid receptor): 11%

COc1ccc2c(c1)[C@]13CCN(C/C=C/c4ccccc4)[C@H](C2)[C@]1(O)CC[C@@]1(C3)NC(=O)NC1=O [Compound 24, (4bR,4′S,8aS,9R)-11-cinnamyl-8a-hydroxy-3-methoxy-5,7,8,8a,9,10-hexahydrospiro[9,4b-(epiminoethano)phenanthrene-6,4′-imidazolidine]-2′,5′-dione]
EC50 (κ opioid receptor): > 20 µM | Emax (κ opioid receptor): 29.7 ± 1.86% | EC50 (μ-opioid receptor): > 20 µM | Emax (μ-opioid receptor): 8%

COc1ccc2c(c1)[C@]13CCN(CC4CCOCC4)[C@H](C2)[C@]1(O)CC[C@@]1(C3)NC(=O)NC1=O [Compound 25, (4bR,4′S,8aS,9R)-8a-hydroxy-3-methoxy-11-((tetrahydro-2H-pyran-4-yl)methyl)-5,7,8,8a,9,10-hexahydrospiro[9,4b-(epiminoethano)phenanthrene-6,4′-imidazolidine]-2′,5′-dione]
EC50 (κ opioid receptor): > 20 µM | Emax (κ opioid receptor): 10 ± 4.6% | EC50 (μ-opioid receptor): > 20 µM | Emax (μ-opioid receptor): 6.67 ± 0.88%

COc1ccc2c(c1)[C@]13CCN(CCCc4ccccc4)[C@H](C2)[C@]1(O)CC[C@@]1(C3)NC(=O)NC1=O [Compound 26, (4bR,4′S,8aS,9R)-8a-hydroxy-3-methoxy-11-(3-phenylpropyl)-5,7,8,8a,9,10-hexahydrospiro[9,4b-(epiminoethano)phenanthrene-6,4′-imidazolidine]-2′,5′-dione]
EC50 (κ opioid receptor): > 20 µM | Emax (κ opioid receptor): 63 ± 8.72% | EC50 (μ-opioid receptor): > 20 µM | Emax (μ-opioid receptor): 26.7 ± 11.7%

O=C1NC(=O)[C@@]2(CC[C@@]3(O)[C@H]4Cc5ccc(O)cc5[C@@]3(CCN4CC3CCCCC3)C2)N1 [Compound 27, (4bR,4′S,8aS,9R)-11-(cyclohexylmethyl)-3,8a-dihydroxy-5,7,8,8a,9,10-hexahydrospiro[9,4b-(epiminoethano)phenanthrene-6,4′-imidazolidine]-2′,5′-dione]
EC50 (κ opioid receptor): 2.08 ± 0.406 µM | Emax (κ opioid receptor): 33.3 ± 3.53% | EC50 (μ-opioid receptor): 12.8 ± 3.86 µM | Emax (μ-opioid receptor): 21.3 ± 1.86%

CC(C)CCN1CC[C@]23C[C@]4(CC[C@@]2(O)[C@H]1Cc1ccc(O)cc13)NC(=O)NC4=O [Compound 28, (4bR,4′S,8aS,9R)-3,8a-dihydroxy-11-isopentyl-5,7,8,8a,9,10-hexahydrospiro[9,4b-(epiminoethano)phenanthrene-6,4′-imidazolidine]-2′,5′-dione]
EC50 (κ opioid receptor): 0.604 ± 0.112 µM | Emax (κ opioid receptor): 88 ± 4.36% | EC50 (μ-opioid receptor): 0.153 ± 0.0201 µM | Emax (μ-opioid receptor): 113 ± 2.78%

CCN1CC[C@]23C[C@]4(CC[C@@]2(O)[C@H]1Cc1ccc(O)cc13)NC(=O)NC4=O [Compound 29]
EC50 (κ opioid receptor): 0.25 ± 0.095 µM | Emax (κ opioid receptor): 102 ± 2.19% | EC50 (μ-opioid receptor): 1.26 ± 0.206 µM | Emax (μ-opioid receptor): 83.8 ± 0.8%
